Like-named read-outs stand apart in the source and are kept apart here.
Assays:
[1] = molecular target: AeKir1 (Aedes aegypti, UniProt L0EQS9); assay: Tl+ flux assay in T-REx-HEK293-AeKir1 cells; assay type: cell-based; details: for IC50: read-out: IC50±SEM
Method: Tl^+ flux assays were performed essentially as described previously, [18], [19]. Briefly, stably transfected T-Rex-HEK-293 cells expressing AeKir1 channels were cultured overnight in 384-well plates (20,000 cells/20 µL/well black-walled, clear-bottomed BD PureCoat amine-coated plates (BD, Bedford, MA) with a plating media containing DMEM, 10% dialyzed FBS and 1 µg/mL tetracycline. The next day, the cell culture medium was replaced with a dye-loading solution containing assay buffer (Hanks Balanced Salt Solution with 20 mM HEPES, pH 7.3), 0.01% (w/v) Pluronic F-127 (Life Technologies, Carlsbad, CA), and 1.2 µM of the thallium-sensitive dye Thallos-AM (TEFlabs, Austin, TX). Following 1 hr incubation at room temperature, the dye-loading solution was washed from the plates and replaced with 20 µL/well of assay buffer. The plates were transferred to a Hamamatsu Functional Drug Screening System 6000 (FDSS6000; Hamamatsu, Hamamatsu (or Bridgewater, NJ), Japan) where 20 µL/well of test compounds in assay buffer (as prepared below) were added and allowed to incubate with the cells for 20 min. After the incubation period, a baseline recording was collected at 1 Hz for 10 s (excitation 470±20 nm, emission 540±30 nm) followed by a Tl^+ stimulus buffer addition (10 µL/well) and data collection for an additional 4 min. The Tl^+ stimulus buffer contains in (mM) 125 NaHCO3, 1.8 CaSO4, 1 MgSO4, 5 glucose, 12 Tl2SO4, 10 HEPES, pH 7.4. For Tl^+ flux assays on the mammalian channels Kir2.x, Kir4.1 and Kir6.2/SUR1 expressing cells, the Tl^+ stimulus buffer contained 1.8 mM Tl2SO4. Also, Tl^+ flux assays on Kir3.1/3.2/mGlu8 expressing cell, required addition of an EC80 concentration of glutamate (Sigma-Aldrich, St. Louis, MO) with the Tl^+ stimulus buffer. The test compounds were transferred to daughter polypropylene 384-well plates (Greiner Bio-One, Monroe, NC) using an Echo555 liquid handler (Labcyte, Sunnyvale, CA), and then diluted into assay buffer to generate a 2X stock in 0.6% DMSO (0.3% final). For Tl^+ flux assays on Kir6.2/SUR1 expressing cells, test compounds were diluted in assay buffer containing diazoxide (250 µM final) to induce channel activation. Concentration-response curves (CRCs) were generated by screening compounds at 3-fold dilution series in 4-point (1 µM–30 µM) or 11-point (1 nM–30 µM) CRCs. Tl^+ flux data were analyzed as previously described, [21], [22] using a combination of Excel (Microsoft Corp, Redmond, WA) with XLfit add-in (IDBS, Guildford, Surrey, UK) and OriginPro (OriginLab, Northampton, MA) software. Raw data were opened in Excel and each data point in a given trace was divided by the first data point from that trace (static ratio) followed by subtraction of data points from control traces generated in the presence of vehicle controls. The slope of the fluorescence increase beginning 5 s after Tl^+ addition and ending 15 s after Tl^+ addition was calculated. To compare the effect of DMSO on AeKir1-mediated Tl^+ flux, a one-way ANOVA was performed with a Tukey's multiple comparison test. Prism software (GraphPad Software) was used to generate CRC from Tl^+ flux. Half-inhibition concentration (IC50) values were calculated from fits using a four parameter logistic equation.

[2] = system: mosquitoes; assay: Toxicity when applied to the cuticle (topical); assay type: in vivo; details: Piermarini, unpublished observations
[3] = molecular target: AeKir2B (Aedes aegypti, UniProt L0EQ40); parameters: method as in PMID 24959745; details: cited from earlier work
Chain of AeKir2B (L0EQ40 entry or part of it): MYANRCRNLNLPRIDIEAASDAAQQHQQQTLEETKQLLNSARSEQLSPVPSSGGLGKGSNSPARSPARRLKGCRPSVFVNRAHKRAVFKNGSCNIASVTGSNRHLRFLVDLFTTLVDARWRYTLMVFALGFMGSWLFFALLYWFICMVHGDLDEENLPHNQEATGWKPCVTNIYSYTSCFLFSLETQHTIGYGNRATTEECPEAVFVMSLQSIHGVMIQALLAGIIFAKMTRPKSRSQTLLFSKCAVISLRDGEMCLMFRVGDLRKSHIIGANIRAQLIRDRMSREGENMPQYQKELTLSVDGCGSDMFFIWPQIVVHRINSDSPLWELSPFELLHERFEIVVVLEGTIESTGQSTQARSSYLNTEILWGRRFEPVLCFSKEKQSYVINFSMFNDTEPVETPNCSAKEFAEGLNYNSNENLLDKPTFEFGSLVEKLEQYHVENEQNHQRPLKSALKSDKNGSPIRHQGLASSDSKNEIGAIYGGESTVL

[4] = system: adult female mosquitoes (A. aegypti); parameters: method as in PMID 23734226, PMID 24959745; details: within 24 h; cited from earlier work
[5] = system: adult female mosquitoes (A. aegypti); parameters: method as in PMID 23734226, PMID 24959745; details: after loading hemolymph with 900 nl of a PBS vehicle; cited from earlier work
[6] = system: adult female mosquitoes (A. aegypti); assay: Mosquito excretion experiments (excretory capacity); assay type: in vivo, Aedes aegypti; details: probenecid 3.4 nmol per mosquito in 900 nL vehicle, 1 h after injection; mean ±SEM
Method: The Aedes aegypti mosquito colony used in the present study is identical to that described previously. As before, only adult female mosquitoes 3–10 days post emergence were utilized for experiments.
The excretory capacity of mosquitoes was measured as described. In brief, after anesthetizing mosquitoes on ice, their hemolymph was injected as described above with 900 nL of a K^+-PBS vehicle containing 1.15% DMSO, 0.077% β-cyclodextrin, and 0.008% Solutol, or the vehicle containing VU625 (0.77 mM) to deliver a dose of 690 pmol of VU625 per mosquito. In experiments where probenecid was used, the vehicle was supplemented with water- soluble probenecid […] to deliver a dose of 3.4 nmol of probenecid per mosquito. After injection, the mosquitoes were placed immediately in a graduated, packed-cell volume tube (MidSci, St. Louis, MO; 5 mosquitoes per tube) and held at 28°C. The volume of urine excreted at 60 min post injection was measured as described previously, and all mosquitoes were confirmed to be alive at the end of 60 min period. For each treatment, 6–18 independent trials of 5 mosquitoes per treatment were performed.
Prism (GraphPad Software) was used to generate a dose-response curve for the toxicity of VU625; the doses (x-axis) were first log transformed and then the mortality data was normalized using Prism, where the smallest value and largest values in a data set equal ‘0%’ and ‘100%’, respectively. The data were then fitted using a ‘biphasic’ algorithm (<100 constraint) to calculate potencies (ED25 and ED75 values). To compare 1) the toxic effects among the vehicle, probenecid, VU625, and VU625 + probenecid treatments, and 2) the excretory capacity among the vehicle, probenecid, VU625, and VU625 + probenecid treatments, one-way ANOVAs were performed with Newman-Keuls posttests.

[7] = Table 2, southern amide SAR, 11-point CRCs on AeKir1 in Tl+ flux, triplicate on two separate days
[8] = Table 3, central core SAR, 11-point CRCs on AeKir1 in Tl+ flux, triplicate on two separate days

Chain of AeKir1 (L0EQS9 entry or part of it): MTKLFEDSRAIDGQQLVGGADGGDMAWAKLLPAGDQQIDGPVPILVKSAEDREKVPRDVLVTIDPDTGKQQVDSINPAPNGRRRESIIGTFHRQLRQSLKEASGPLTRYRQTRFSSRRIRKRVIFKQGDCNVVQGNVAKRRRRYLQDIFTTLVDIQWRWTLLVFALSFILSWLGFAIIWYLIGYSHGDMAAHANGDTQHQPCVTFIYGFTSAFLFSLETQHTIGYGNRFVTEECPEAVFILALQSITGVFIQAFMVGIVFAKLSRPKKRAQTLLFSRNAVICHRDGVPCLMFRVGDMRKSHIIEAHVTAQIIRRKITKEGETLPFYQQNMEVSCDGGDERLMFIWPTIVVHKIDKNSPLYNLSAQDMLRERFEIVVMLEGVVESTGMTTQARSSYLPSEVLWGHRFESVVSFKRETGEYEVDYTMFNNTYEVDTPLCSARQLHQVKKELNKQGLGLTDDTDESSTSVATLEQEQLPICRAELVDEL

Structure (SMILES) | IC50 [1, 7] | IC50 [1, 8] | also measured
COc1cccc(NS(=O)(=O)c2ccc3c(c2)CC(C)N3C(=O)C(F)(F)F)c1 (stereo not shown) [3b] | 580 ± 40 nM |  | 
COc1cccc(NS(=O)(=O)c2ccc3c(c2)CC(C)N3C(=O)c2cccc(F)c2)c1 (stereo not shown) [3c] | 5200 ± 400 nM |  | 
COc1cccc(NS(=O)(=O)c2ccc3c(c2)CC(C)N3C(=O)c2ccccc2C)c1 (stereo not shown) [3d] | 4410 ± 1110 nM |  | 
COc1cccc(NS(=O)(=O)c2ccc3c(c2)CC(C)N3C(=O)c2cccc(C)c2)c1 (stereo not shown) [3e] | 3870 ± 1970 nM |  | 
COc1cccc(NS(=O)(=O)c2ccc3c(c2)CC(C)N3C(=O)c2ccc(C)cc2)c1 (stereo not shown) [3f] | > 30000 nM |  | 
COc1cccc(NS(=O)(=O)c2ccc3c(c2)CC(C)N3C(=O)c2ccccn2)c1 (stereo not shown) [3g] | 4400 ± 500 nM |  | 
COc1cccc(NS(=O)(=O)c2ccc3c(c2)CC(C)N3S(=O)(=O)c2ccccc2)c1 (stereo not shown) [3h] | 3290 ± 890 nM |  | IC50±SEM [1, 7]: less activity
COc1cccc(NS(=O)(=O)c2ccc3c(c2)CC(C)N3C(=O)N(C)C)c1 (stereo not shown) [3i] | 2090 ± 490 nM |  | 
COc1cccc(NS(=O)(=O)c2ccc3c(c2)CC(C)N3S(C)(=O)=O)c1 (stereo not shown) [3j] | 2820 ± 480 nM |  | 
COc1cccc(NS(=O)(=O)c2ccc3c(c2)CC(C)N3S(=O)(=O)C2CC2)c1 (stereo not shown) [3k] | 760 nM |  | 
COc1cccc(NS(=O)(=O)c2ccc3c(c2)CC(C)N3S(=O)(=O)C(C)(C)C)c1 (stereo not shown) [3l] | 820 ± 480 nM |  | 
COc1cccc(NS(=O)(=O)c2ccc3c(ccn3C)c2)c1 [4a] |  | 550 ± 80 nM | 
COc1cccc(NS(=O)(=O)c2ccc3c(c2)cc(C)n3C)c1 [4b] |  | 970 ± 100 nM | 
COc1cccc(NS(=O)(=O)c2ccc3c(c2)CCC(=O)N3)c1 [4c] |  | > 30000 nM | 
COc1cccc(NS(=O)(=O)c2ccc3c(c2)OCC(=O)N3)c1 [4d] |  | > 30000 nM | 
COc1cccc(NS(=O)(=O)c2ccc3c(c2)CC(=O)N3C)c1 [4e] |  | > 30000 nM | 
COc1cccc(NS(=O)(=O)c2ccc3c(c2)CCN3C(C)=O)c1 [4f] |  | 1150 ± 50 nM | loss of potency relative to VU625 ([1]; AeKir1 Tl+ flux): ~3 fold
Cc1ccc(OCC(O)Cn2c(=N)n(Cc3ccccc3)c3ccccc32)cc1 (stereo not shown) [VU573] |  |  | toxicity when applied to the cuticle [2]: lack of topical activity; effect on AeKir2B [3]: activates AeKir2B; effect of hemolymph injection on mosquitoes [4]: incapacitation and/or death within 24 h; effect on excretory capacity [5]: decrease in the excretory capacity
O=[N+]([O-])c1ccc(CN2CCOCCOCCN(Cc3ccc([N+](=O)[O-])cc3)CCOCC2)cc1 [VU590] |  |  | toxicity when applied to the cuticle [2]: lack of topical activity; effect on AeKir2B [3]: selective inhibitor of AeKir1 over AeKir2B; effect of hemolymph injection on mosquitoes [4]: incapacitation and/or death within 24 h; effect on excretory capacity [5]: decrease in the excretory capacity
CCCN(CCC)S(=O)(=O)c1ccc(C(=O)O)cc1 [probenecid, reference compound] |  |  | excretory capacity (urine excreted) [6]: 467.8±33.53 nL/female

— PMC4222822, “Discovery and Characterization of a Potent and Selective Inhibitor of Aedes aegypti Inward Rectifier Potassium Channels” (PLoS ONE, 2014)
